Experimental data published in US10004701B2, “Methods and compositions for treating infection” (UNIVERSITY OF ROCHESTER, priority 2012, dated 2018).
Counter-ions that a name gives are not always drawn. Like-named read-outs stand apart in the source and are kept apart here.

Assays:
Test in all cases: AK assay 384-well format, Prestwick library screening
E. faecium = format: cell-based, Enterococcus faecium; settings: Enterococcus faecium, 3 h, 50 μM final drug concentration
[1] = tested on: S. aureus strain USA300-0114; format: cell-based, Staphylococcus aureus; settings: Staphylococcus aureus, USA300, 3 h, 50 μM final drug concentration
K. pneumoniae = format: cell-based, Klebsiella pneumoniae; settings: Klebsiella pneumoniae, 3 h, 50 μM final drug concentration
[2] = tested on: A. baumannii strain 98-37-09; format: cell-based, Acinetobacter baumannii; settings: Acinetobacter baumannii, 983709, 3 h, 50 μM final drug concentration
P. aeruginosa = format: cell-based, Pseudomonas aeruginosa; settings: Pseudomonas aeruginosa, 3 h, 50 μM final drug concentration
E. cloacae = format: cell-based, Enterobacter cloacae; settings: Enterobacter cloacae, 3 h, 50 μM final drug concentration
E. coli = format: cell-based, Escherichia coli; settings: Escherichia coli, 3 h, 50 μM final drug concentration
[3] = 384-well format, cutoff for positive-scoring molecules 3-fold increase, read-out: AK-based Prestwick Library Screening Results, E. faecium (increase in extracellular AK activity)
[4] = 384-well format, cutoff for positive-scoring molecules 3-fold increase, read-out: AK-based Prestwick Library Screening Results, S. aureus (increase in extracellular AK activity)
[5] = 384-well format, cutoff for positive-scoring molecules 3-fold increase, read-out: AK-based Prestwick Library Screening Results, K. pneumoniae (increase in extracellular AK activity)
[6] = 384-well format, cutoff for positive-scoring molecules 3-fold increase, read-out: AK-based Prestwick Library Screening Results, A. baumannii (increase in extracellular AK activity)
[7] = 384-well format, cutoff for positive-scoring molecules 3-fold increase, read-out: AK-based Prestwick Library Screening Results, P. aeruginosa (increase in extracellular AK activity)
[8] = 384-well format, cutoff for positive-scoring molecules 3-fold increase, read-out: AK-based Prestwick Library Screening Results, E. cloacae (increase in extracellular AK activity)
[9] = 384-well format, cutoff for positive-scoring molecules 3-fold increase, read-out: AK-based Prestwick Library Screening Results, E. coli (increase in extracellular AK activity)
[10] = planktonic, […], read-out: AK-based Prestwick Library Screening Results, E. faecium (fold increase in extracellular AK activity)
[11] = planktonic, […], read-out: AK-based Prestwick Library Screening Results, S. aureus (fold increase in extracellular AK activity)
[12] = planktonic, […], read-out: AK-based Prestwick Library Screening Results, K. pneumoniae (fold increase in extracellular AK activity)
[13] = planktonic, […], read-out: AK-based Prestwick Library Screening Results, A. baumannii (fold increase in extracellular AK activity)
[14] = planktonic, […], read-out: AK-based Prestwick Library Screening Results, P. aeruginosa (fold increase in extracellular AK activity)
[15] = planktonic, […], read-out: AK-based Prestwick Library Screening Results, E. cloacae (fold increase in extracellular AK activity)
[16] = planktonic, […], read-out: AK-based Prestwick Library Screening Results, E. coli (fold increase in extracellular AK activity)

## N=C(N)N/N=C/c1c(Cl)cccc1Cl [Guanabenz acetate]
E. faecium; [3]
  fold induction at 50 µM: 1
[1]; [4]
  fold induction at 50 µM: 0.5
K. pneumoniae; [5]
  fold induction at 50 µM: 0.4
[2]; [6]
  fold induction at 50 µM: 0.8
P. aeruginosa; [7]
  fold induction at 50 µM: 0.6
E. cloacae; [8]
  fold induction at 50 µM: 0.7
E. coli; [9]
  fold induction at 50 µM: 0.7

## N=C(N)NCCN1CCCCCCC1 [Guanethidine sulfate]
E. faecium; planktonic E. faecium, 384-well, […], read-out: AK-based Prestwick Library Screening Results: E. faecium (increase in extracellular AK activity)
  fold induction at 50 µM: 1.1
[1]; planktonic S. aureus, 384-well, […], read-out: AK-based Prestwick Library Screening Results: S. aureus (increase in extracellular AK activity)
  fold induction at 50 µM: 1.1
K. pneumoniae; planktonic K. pneumoniae, 384-well, […], read-out: AK-based Prestwick Library Screening Results: K. pneumoniae (increase in extracellular AK activity)
  fold induction at 50 µM: 1.1
[2]; planktonic A. baumannii, 384-well, […], read-out: AK-based Prestwick Library Screening Results: A. baumannii (increase in extracellular AK activity)
  fold induction at 50 µM: 1.3
P. aeruginosa; planktonic P. aeruginosa, 384-well, […], read-out: AK-based Prestwick Library Screening Results: P. aeruginosa (increase in extracellular AK activity)
  fold induction at 50 µM: 1.4
E. cloacae; planktonic E. cloacae, 384-well, […], read-out: AK-based Prestwick Library Screening Results: E. cloacae (increase in extracellular AK activity)
  fold induction at 50 µM: 1.4
E. coli; planktonic E. coli, 384-well, […], read-out: AK-based Prestwick Library Screening Results: E. coli (increase in extracellular AK activity)
  fold induction at 50 µM: 1.4

## N=C(N)NC(=O)Cc1c(Cl)cccc1Cl [Guanfacine hydrochloride]
E. faecium; planktonic E. faecium, cutoff for positive-scoring molecules 3-fold increase, read-out: AK-based Prestwick Library Screening Results, E. faecium (increase in extracellular AK activity)
  fold induction at 50 µM: 1.1
[1]; planktonic S. aureus, cutoff for positive-scoring molecules 3-fold increase, read-out: AK-based Prestwick Library Screening Results, S. aureus (increase in extracellular AK activity)
  fold induction at 50 µM: 0.6
K. pneumoniae; planktonic K. pneumoniae, cutoff for positive-scoring molecules 3-fold increase, read-out: AK-based Prestwick Library Screening Results, K. pneumoniae (increase in extracellular AK activity)
  fold induction at 50 µM: 0.5
[2]; planktonic A. baumannii, cutoff for positive-scoring molecules 3-fold increase, read-out: AK-based Prestwick Library Screening Results, A. baumannii (increase in extracellular AK activity)
  fold induction at 50 µM: 0.7
P. aeruginosa; planktonic P. aeruginosa, cutoff for positive-scoring molecules 3-fold increase, read-out: AK-based Prestwick Library Screening Results, P. aeruginosa (increase in extracellular AK activity)
  fold induction at 50 µM: 0.7
E. cloacae; planktonic E. cloacae, cutoff for positive-scoring molecules 3-fold increase, read-out: AK-based Prestwick Library Screening Results, E. cloacae (increase in extracellular AK activity)
  fold induction at 50 µM: 0.9
E. coli; planktonic E. coli, cutoff for positive-scoring molecules 3-fold increase, read-out: AK-based Prestwick Library Screening Results, E. coli (increase in extracellular AK activity)
  fold induction at 50 µM: 0.8

## CC1(C)O[C@@H]2C[C@H]3[C@@H]4CCC5=CC(=O)CC[C@]5(C)[C@@]4(F)[C@@H](O)C[C@]3(C)[C@]2(C(=O)CCl)O1 [Halcinonide]
E. faecium; planktonic, cutoff for positive-scoring molecules 3-fold increase, read-out: AK-based Prestwick Library Screening Results, E. faecium (fold increase in extracellular AK activity)
  fold induction at 50 µM: 0.9
[1]; planktonic, cutoff for positive-scoring molecules 3-fold increase, read-out: AK-based Prestwick Library Screening Results, S. aureus (fold increase in extracellular AK activity)
  fold induction at 50 µM: 0.6
K. pneumoniae; planktonic, cutoff for positive-scoring molecules 3-fold increase, read-out: AK-based Prestwick Library Screening Results, K. pneumoniae (fold increase in extracellular AK activity)
  fold induction at 50 µM: 0.5
[2]; planktonic, cutoff for positive-scoring molecules 3-fold increase, read-out: AK-based Prestwick Library Screening Results, A. baumannii (fold increase in extracellular AK activity)
  fold induction at 50 µM: 0.7
P. aeruginosa; planktonic, cutoff for positive-scoring molecules 3-fold increase, read-out: AK-based Prestwick Library Screening Results, P. aeruginosa (fold increase in extracellular AK activity)
  fold induction at 50 µM: 0.7
E. cloacae; planktonic, cutoff for positive-scoring molecules 3-fold increase, read-out: AK-based Prestwick Library Screening Results, E. cloacae (fold increase in extracellular AK activity)
  fold induction at 50 µM: 0.8
E. coli; planktonic, cutoff for positive-scoring molecules 3-fold increase, read-out: AK-based Prestwick Library Screening Results, E. coli (fold increase in extracellular AK activity)
  fold induction at 50 µM: 0.6

## CCCCN(CCCC)CCC(O)c1cc2c(Cl)cc(Cl)cc2c2cc(C(F)(F)F)ccc12 (stereo not drawn) [Halofantrine hydrochloride]
E. faecium; planktonic E. faecium, positive cutoff 3-fold increase, read-out: AK-based Prestwick library screening result, E. faecium (fold increase in extracellular AK activity)
  fold induction at 50 µM: 1
[1]; planktonic S. aureus, positive cutoff 3-fold increase, read-out: AK-based Prestwick library screening result, S. aureus (fold increase in extracellular AK activity)
  fold induction at 50 µM: 1.2
K. pneumoniae; planktonic K. pneumoniae, positive cutoff 3-fold increase, read-out: AK-based Prestwick library screening result, K. pneumoniae (fold increase in extracellular AK activity)
  fold induction at 50 µM: 1.1
[2]; planktonic A. baumannii, positive cutoff 3-fold increase, read-out: AK-based Prestwick library screening result, A. baumannii (fold increase in extracellular AK activity)
  fold induction at 50 µM: 1.3
P. aeruginosa; planktonic P. aeruginosa, positive cutoff 3-fold increase, read-out: AK-based Prestwick library screening result, P. aeruginosa (fold increase in extracellular AK activity)
  fold induction at 50 µM: 1.1
E. cloacae; planktonic E. cloacae, positive cutoff 3-fold increase, read-out: AK-based Prestwick library screening result, E. cloacae (fold increase in extracellular AK activity)
  fold induction at 50 µM: 1.3
E. coli; planktonic E. coli, positive cutoff 3-fold increase, read-out: AK-based Prestwick library screening result, E. coli (fold increase in extracellular AK activity)
  fold induction at 50 µM: 1

## O=C(CCCN1CCC(O)(c2ccc(Cl)cc2)CC1)c1ccc(F)cc1 [Haloperidol]
E. faecium; [3]
  fold induction at 50 µM: 0.9
[1]; [4]
  fold induction at 50 µM: 0.8
K. pneumoniae; [5]
  fold induction at 50 µM: 0.6
[2]; [6]
  fold induction at 50 µM: 1
P. aeruginosa; [7]
  fold induction at 50 µM: 0.9
E. cloacae; [8]
  fold induction at 50 µM: 1.1
E. coli; [9]
  fold induction at 50 µM: 0.9

## COc1ccc2c3c([nH]c2c1)C(C)=NCC3 [Harmaline hydrochloride dihydrate]
E. faecium; [10]
  fold induction at 50 µM: 1
[1]; [11]
  fold induction at 50 µM: 1.4
K. pneumoniae; [12]
  fold induction at 50 µM: 0.9
[2]; [13]
  fold induction at 50 µM: 1
P. aeruginosa; [14]
  fold induction at 50 µM: 1
E. cloacae; [15]
  fold induction at 50 µM: 1.3
E. coli; [16]
  fold induction at 50 µM: 1.1

## CC1=NCCc2c1[nH]c1cc(O)ccc21 [Harmalol hydrochloride dihydrate]
E. faecium; planktonic, cutoff for positive 3-fold increase, read-out: AK-based Prestwick Library Screening Results, E. faecium (fold increase in extracellular AK activity)
  fold induction at 50 µM: 1
[1]; planktonic, cutoff for positive 3-fold increase, read-out: AK-based Prestwick Library Screening Results, S. aureus (fold increase in extracellular AK activity)
  fold induction at 50 µM: 0.8
K. pneumoniae; planktonic, cutoff for positive 3-fold increase, read-out: AK-based Prestwick Library Screening Results, K. pneumoniae (fold increase in extracellular AK activity)
  fold induction at 50 µM: 0.8
[2]; planktonic, cutoff for positive 3-fold increase, read-out: AK-based Prestwick Library Screening Results, A. baumannii (fold increase in extracellular AK activity)
  fold induction at 50 µM: 1.1
P. aeruginosa; planktonic, cutoff for positive 3-fold increase, read-out: AK-based Prestwick Library Screening Results, P. aeruginosa (fold increase in extracellular AK activity)
  fold induction at 50 µM: 1.2
E. cloacae; planktonic, cutoff for positive 3-fold increase, read-out: AK-based Prestwick Library Screening Results, E. cloacae (fold increase in extracellular AK activity)
  fold induction at 50 µM: 1.6
E. coli; planktonic, cutoff for positive 3-fold increase, read-out: AK-based Prestwick Library Screening Results, E. coli (fold increase in extracellular AK activity)
  fold induction at 50 µM: 1.2

## COc1ccc2c(c1)[nH]c1c(C)nccc12 [Harmine hydrochloride]
E. faecium; [10]
  fold induction at 50 µM: 1.1
[1]; [11]
  fold induction at 50 µM: 0.9
K. pneumoniae; [12]
  fold induction at 50 µM: 0.7
[2]; [13]
  fold induction at 50 µM: 1
P. aeruginosa; [14]
  fold induction at 50 µM: 1.2
E. cloacae; [15]
  fold induction at 50 µM: 1.5
E. coli; [16]
  fold induction at 50 µM: 1.1
